Data taken from EP4796538A1, “NOVEL QUINOXALINE COMPOUNDS, MANUFACTURING METHOD THEREOF, AND USES THEREOF” (Gachon University of Industry-Academic Cooperation …, priority 2023, dated 2025).

What was measured:
BaF3 KIF5B-RET (V804M) = experiment: Cell proliferation inhibition, Cell Counting Kit-8, Ba/F3 cell line; format: cell-based, rodent; conditions: Mus musculus, 72 hours incubation, read-out: Cell Viability of BaF3 Cell lines (IC50 in uM) KIF5B-RET (V804M)
Protocol: To evaluate the inhibitory activity of the compounds represented by Formula I or Formula IV according to the present invention against RET mutation-driven cell growth in the Ba/F3 cell line and against cell growth in the non-small cell lung cancer cell line A-549, the following experiment was performed.
Each cell line was seeded in a 96-well plate at 1×10^4 cells/90 µL/well, and 10 µL/well of culture medium containing each example and intermediate compound or DMSO control at 9 concentrations (1 nM to 100 µM) prepared by 3-fold serial dilutions was added to achieve a final concentration of 0 to 100 µM, followed by incubation for 72 hours in a 37°C, 5% CO2 incubator. After 72 hours of incubation, the compound-treated plates were removed, and Cell Counting Kit-8 solution was added at 10 µL/well and mixed well. The plates were then incubated for 2 hours in a CO2 incubator at 37°C, and the absorbance was measured at 450 nm using a microplate reader.
The absorbance of the experimental group relative to that of the DMSO control group was converted to % survival, and the IC50 values representing the concentration required to inhibit cell growth by 50% were calculated. As a control compound, selpercatinib, a known RET inhibitor, was treated to calculate the IC50 values.

RET = biological target: T1, RET (Homo sapiens, UniProt P07949); experiment: Kinase panel inhibition, radiolabeled [γ-33P] ATP (Reaction Biology Corp); format: biochemical; conditions: for remaining activity at 1 µM: compound at 1 uM, ATP 10 µM, read-out: % Enzyme Activity (relative to DMSO controls) RET; for IC50: read-out: Enzymatic inhibitory activity (IC50) nM RET
T1 construct: purchased Reaction Biology Corp
Protocol: (§1) Using radiolabeled ATP ([γ-33P] ATP), the degree to which the substrate was replaced by a 33P-phosphorylated substrate was measured, and changes in kinase activity were determined from the measurement of the radiolabeled phosphorylated substrate.

RET(V804M) = biological target: T2, RET(V804M) (Homo sapiens, UniProt P07949, V804M); experiment: as above; format: biochemical; conditions: for remaining activity at 1 µM: compound at 1 uM, ATP 10 µM, read-out: % Enzyme Activity (relative to DMSO controls) V804M; for IC50: read-out: Enzymatic inhibitory activity (IC50) nM V804M
T2 construct: purchased Reaction Biology Corp
Protocol: as §1

A-549 = experiment: Cell proliferation inhibition, Cell Counting Kit-8, non-small cell lung cancer cell line; format: cell-based; conditions: A-549 cell line; 72 hours incubation; test concentration not given
RET(V804M)-KIF5B = biological target: T3, RET(V804M)-KIF5B (Homo sapiens, UniProt P07949, V804M); experiment: Kinase panel inhibition, radiolabeled [γ-33P] ATP (Reaction Biology Corp); format: biochemical
T3 sequence (P07949 713-1114 V804M): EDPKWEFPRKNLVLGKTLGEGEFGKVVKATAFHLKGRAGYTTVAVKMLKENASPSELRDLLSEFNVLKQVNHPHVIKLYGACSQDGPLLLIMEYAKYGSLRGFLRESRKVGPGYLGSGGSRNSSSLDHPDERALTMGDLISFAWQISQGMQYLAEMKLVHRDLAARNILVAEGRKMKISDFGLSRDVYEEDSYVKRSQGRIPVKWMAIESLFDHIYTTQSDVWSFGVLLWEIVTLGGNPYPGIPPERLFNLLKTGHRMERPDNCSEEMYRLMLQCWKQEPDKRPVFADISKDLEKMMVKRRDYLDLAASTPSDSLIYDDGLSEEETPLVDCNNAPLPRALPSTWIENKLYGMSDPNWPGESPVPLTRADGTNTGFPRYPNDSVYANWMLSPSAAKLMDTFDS
T3 sequence (P33176 2-575 partner): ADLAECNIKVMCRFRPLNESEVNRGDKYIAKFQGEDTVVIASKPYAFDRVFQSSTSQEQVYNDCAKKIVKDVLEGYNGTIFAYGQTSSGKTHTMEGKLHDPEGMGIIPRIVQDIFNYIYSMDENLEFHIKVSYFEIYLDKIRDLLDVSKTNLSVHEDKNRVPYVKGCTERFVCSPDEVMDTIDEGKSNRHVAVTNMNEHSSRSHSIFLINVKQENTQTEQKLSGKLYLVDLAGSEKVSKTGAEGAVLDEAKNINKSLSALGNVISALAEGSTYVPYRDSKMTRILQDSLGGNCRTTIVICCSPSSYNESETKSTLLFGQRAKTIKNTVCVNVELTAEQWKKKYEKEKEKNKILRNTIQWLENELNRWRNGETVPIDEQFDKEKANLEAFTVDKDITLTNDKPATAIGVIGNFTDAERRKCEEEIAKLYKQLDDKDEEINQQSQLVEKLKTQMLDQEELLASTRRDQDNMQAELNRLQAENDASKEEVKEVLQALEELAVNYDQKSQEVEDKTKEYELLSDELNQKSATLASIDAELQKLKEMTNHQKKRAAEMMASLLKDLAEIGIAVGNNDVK
Protocol: as §1

T1 sequence (P07949 29-1114): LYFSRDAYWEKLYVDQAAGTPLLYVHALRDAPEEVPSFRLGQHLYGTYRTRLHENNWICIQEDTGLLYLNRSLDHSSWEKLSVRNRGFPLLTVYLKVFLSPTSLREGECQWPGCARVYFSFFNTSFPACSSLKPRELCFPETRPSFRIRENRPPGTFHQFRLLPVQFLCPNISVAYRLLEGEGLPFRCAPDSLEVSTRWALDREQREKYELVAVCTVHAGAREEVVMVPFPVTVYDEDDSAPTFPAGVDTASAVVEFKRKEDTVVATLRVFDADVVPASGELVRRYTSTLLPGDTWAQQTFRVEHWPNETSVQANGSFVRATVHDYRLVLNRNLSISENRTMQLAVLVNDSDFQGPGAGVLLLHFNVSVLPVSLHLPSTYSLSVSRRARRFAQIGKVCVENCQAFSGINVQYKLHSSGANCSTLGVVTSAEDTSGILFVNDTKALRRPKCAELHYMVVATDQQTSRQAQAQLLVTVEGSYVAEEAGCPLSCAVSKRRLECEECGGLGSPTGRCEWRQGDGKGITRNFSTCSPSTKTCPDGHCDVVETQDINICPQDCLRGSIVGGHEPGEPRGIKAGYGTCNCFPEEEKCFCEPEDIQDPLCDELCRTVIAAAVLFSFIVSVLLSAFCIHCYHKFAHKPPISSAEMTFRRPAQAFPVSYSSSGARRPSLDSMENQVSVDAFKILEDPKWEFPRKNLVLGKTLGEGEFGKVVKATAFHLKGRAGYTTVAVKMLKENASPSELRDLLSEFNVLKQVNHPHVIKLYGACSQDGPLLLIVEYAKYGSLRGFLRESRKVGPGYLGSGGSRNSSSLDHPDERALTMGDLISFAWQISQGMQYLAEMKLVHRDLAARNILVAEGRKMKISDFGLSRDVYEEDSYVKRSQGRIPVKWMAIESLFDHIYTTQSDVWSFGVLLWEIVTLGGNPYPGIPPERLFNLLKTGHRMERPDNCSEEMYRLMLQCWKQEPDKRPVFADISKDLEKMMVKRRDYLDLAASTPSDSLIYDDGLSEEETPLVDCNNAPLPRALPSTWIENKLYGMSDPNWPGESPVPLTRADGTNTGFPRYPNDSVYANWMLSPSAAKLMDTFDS
T2 sequence (P07949 29-1114 V804M): as the sequence (P07949 29-1114) above, with V776M counted along it

SMILES | IC50 (BaF3 KIF5B-RET (V804M)) [µM] | remaining activity at 1 µM (RET) [%] | IC50 (RET) [nM] | remaining activity at 1 µM (RET(V804M)) [%] | IC50 (RET(V804M)) [nM] | Cell Proliferation (% of control) (A-549) [%] | IC50 (RET(V804M)-KIF5B) [nM]
Nc1cc(-c2ccc(N3CC(Oc4cccc(F)c4)C3)nc2)c2nccnc2c1 [Example 1, 8-(6-(3-(3-fluorophenoxy)azetidin-1-yl)pyridin-3-yl)quinoxalin-6-amine] | 1.02 | 0.51 | 3.9 | 1.72 | 4.2 | 34.36 | 6.71
CCNc1cc(-c2ccc(N3CC(Oc4cccc(F)c4)C3)nc2)c2nccnc2c1 [Example 3, N-ethyl-8-(6-(3-(3-fluorophenoxy)azetidin-1-yl)pyridin-3-yl)quinoxalin-6-amine] | 0.12 | 0.14 | 0.57 | 0.63 | 0.78 | 25.06 | 1.36
